pIC50: −log10 of the molar value.
Molecular target: BTK (Homo sapiens (Human), UniProt Q06187)
Test: Btk kinase assay (HTRF)
Assay type: biochemical
Settings: [ATP]=80 μM, BTK=3.4 nM; read-out: BTK Inhibition
Method: Btk kinase activity was determined using a homogenous time resolved fluorescence (HTRF) methodology. Measurements were performed in a reaction volume of 15 μL using 384-well assay plates. Kinase enzyme, inhibitor, ATP and 1 μM peptide substrate were incubated in a reaction buffer compose of Hepes 50 mM (pH7.0), NaN3 0.02%, BSA 0.01%, Orthocanadate 0.1 mM. After one hour, the kinase reaction was quenched by the addition of […] antibody and XL-665 in 1× Detection buffer containing 60 mM EDTA (Cisbio), and the mixture was allowed to incubate for one hour. The HTRF signal was measured on a multimode plate reader (EnVision® Multilabel Reader, Perkin Elmer) with an excitation wavelength (λEx) of 330 nm and detection wavelengths (λEm) of 615 and 665 nrm. Activity was determined by the ratio of the fluorescence at 665 nm to that at 615 nm. For each compound, enzyme activity as measured at various concentrations of compound, Negative control reactions were performed in the absence of inhibitor in two replicates and eight no enzyme controls were used to determine baseline fluorescence levels. IC50s were obtained according to the equation: […] For BTK assay, [ATP]=80 μM, BTK=3.4 nM.

BTK, sequence (Q06187 whole entry, species assumed): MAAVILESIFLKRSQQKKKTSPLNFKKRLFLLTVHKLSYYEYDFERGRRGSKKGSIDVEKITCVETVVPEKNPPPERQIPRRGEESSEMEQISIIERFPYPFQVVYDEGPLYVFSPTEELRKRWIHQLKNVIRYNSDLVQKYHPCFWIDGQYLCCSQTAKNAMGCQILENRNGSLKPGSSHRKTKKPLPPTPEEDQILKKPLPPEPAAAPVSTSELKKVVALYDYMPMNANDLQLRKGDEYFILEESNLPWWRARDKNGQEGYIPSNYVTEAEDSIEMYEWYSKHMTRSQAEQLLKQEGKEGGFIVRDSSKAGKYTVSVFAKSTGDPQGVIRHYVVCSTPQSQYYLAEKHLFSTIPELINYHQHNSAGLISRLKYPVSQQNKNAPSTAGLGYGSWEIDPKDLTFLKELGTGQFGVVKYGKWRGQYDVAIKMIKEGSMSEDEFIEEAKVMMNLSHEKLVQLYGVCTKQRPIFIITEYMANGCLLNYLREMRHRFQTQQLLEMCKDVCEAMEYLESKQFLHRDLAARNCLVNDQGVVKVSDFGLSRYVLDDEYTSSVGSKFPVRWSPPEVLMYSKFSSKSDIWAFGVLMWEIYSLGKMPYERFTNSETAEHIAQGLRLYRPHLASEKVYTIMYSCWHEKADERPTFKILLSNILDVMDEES

| SMILES | pIC50 |
| --- | --- |
| C=CC(=O)N1CC[C@@H](n2c(=O)n(-c3ccc(OCc4cc(F)ccc4F)c(Cl)c3)c3cnccc32)C1 [Example 206, (R)-1-(1-acryloylpyrrolidin-3-yl)-3-(3-chloro-4-((2,5-difluorobenzyl)oxy)phenyl)-1H-imidazo[4,5-c]pyridin-2(3H)-one] | 6.00 to 7.00 |
| C=CC(=O)Nc1cccc(-n2c(=O)n(-c3ccc(Oc4cccc(OCC)c4)cc3)c3cnccc32)c1 [Example 113, N-(3-(3-(4-(3-ethoxyphenoxy)phenyl)-2-oxo-2,3-dihydro-1H-imidazo[4,5-c]pyridin-1-yl)phenyl)acrylamide] | 7.00 to 8.00 |
| C=CC(=O)N1CC[C@H](n2c(=O)n(-c3ccc(NC(=O)c4ccc(C)c(C(F)(F)F)c4)cc3)c3cnccc32)C1 [Example 269, (S)-N-(4-(1-(1-acryloylpyrrolidin-3-yl)-2-oxo-1H-imidazo[4,5-c]pyridin-3(2H)-yl)phenyl)-4-methyl-3-(trifluoromethyl)benzamide] | 6.00 to 7.00 |
| C=CC(=O)N1CCC[C@@H](n2c(=O)n(-c3ccc(Oc4cccc(Cl)c4OC)cc3)c3cnccc32)C1 [Example 64, (R)-1-(1-acryloylpiperidin-3-yl)-3-(4-(3-chloro-2-methoxyphenoxy)phenyl)-1H-imidazo[4,5-c]pyridin-2(3H)-one] | 6.00 to 7.00 |
| CC#CC(=O)N1CCC[C@@H](n2c(=O)n(-c3ccc(Oc4cccc(OC)c4F)cc3)c3cnccc32)C1 [Example 175, (R)-1-(1-(but-2-ynoyl)piperidin-3-yl)-3-(4-(2-fluoro-3-methoxyphenoxy)phenyl)-1H-imidazo[4,5-c]pyridin-2(3H)-one] | 6.00 to 7.00 |
| C=CC(=O)Nc1cccc(-n2c(=O)n(-c3ccc(Oc4cccc(OC(C)C)c4)c(F)c3)c3cnccc32)c1 [Example 48, N-(3-(3-(3-fluoro-4-(3-isopropoxyphenoxy)phenyl)-2-oxo-2,3-dihydro-1H-imidazo[4,5-c]pyridin-1-yl)phenyl)acrylamide] | 7.00 to 8.00 |
| C=CC(=O)N1CC[C@@H](n2c(=O)n(-c3ccc(Oc4ccc(C(F)(F)F)cc4)cc3)c3cnccc32)C1 [Example 36, (R)-1-(1-acryloylpyrrolidin-3-yl)-3-(4-(4-(trifluoromethyl)phenoxy)phenyl)-1H-imidazo[4,5-c]pyridin-2(3H)-one] | 6.00 to 7.00 |
| C=CC(=O)Nc1cccc(-n2c(=O)n(-c3ccc(Oc4cccc(Cl)c4Cl)cc3)c3cnccc32)c1 [Example 98, N-(3-(3-(4-(2,3-dichlorophenoxy)phenyl)-2-oxo-2,3-dihydro-1H-imidazo[4,5-c]pyridin-1-yl)phenyl)acrylamide] | 7.00 to 8.00 |
| C=CC(=O)N1CC[C@@H](n2c(=O)n(-c3ccc(Oc4ccccc4)cc3)c3cccnc32)C1 [Example 120, (R)-3-(1-acryloylpyrrolidin-3-yl)-1-(4-phenoxyphenyl)-1H-imidazo[4,5-b]pyridin-2(3H)-one] | 5.00 to 6.00 |
| C=CC(=O)N1CCC[C@@H](n2c(=O)n(-c3ccc(Oc4cccc(OC)c4C)cc3)c3cnccc32)C1 [Example 142, (R)-1-(1-acryloylpiperidin-3-yl)-3-(4-(3-methoxy-2-methylphenoxy)phenyl)-1H-imidazo[4,5-c]pyridin-2(3H)-one] | 7.00 to 8.00 |
| C=CC(=O)N1CC[C@@H](n2c(=O)n(-c3ccc(Oc4cc(Cl)cc(OC)c4)cc3)c3cnccc32)C1 [Example 9, (R)-1-(1-acryloylpyrrolidin-3-yl)-3-(4-(3-chloro-5-methoxyphenoxy)phenyl)-1H-imidazo[4,5-c]pyridin-2(3H)-one] | 7.00 to 8.00 |
| C=CC(=O)Nc1cccc(-n2c(=O)n(-c3cccc(Oc4cccc(OC)c4)c3)c3cnccc32)c1 [Example 87, N-(3-(3-(3-(3-methoxyphenoxy)phenyl)-2-oxo-2,3-dihydro-1H-imidazo[4,5-c]pyridin-1-yl)phenyl)acrylamide] | 7.00 to 8.00 |
| C=CC(=O)Nc1cccc(-n2c(=O)n(-c3ccc(Oc4ccc(C#N)cc4)cc3)c3cnccc32)c1 [Example 162, N-(3-(3-(4-(4-cyanophenoxy)phenyl)-2-oxo-2,3-dihydro-1H-imidazo[4,5-c]pyridin-1-yl)phenyl)acrylamide] | 6.00 to 7.00 |
| C=CC(=O)N1CC[C@@H](n2c(=O)n(-c3ccc(Oc4cccnc4)cc3)c3cnccc32)C1 [Example 68, (R)-1-(1-acryloylpyrrolidin-3-yl)-3-(4-(pyridin-3-yloxy)phenyl)-1H-imidazo[4,5-c]pyridin-2(3H)-one] | 6.00 to 7.00 |
| C=CC(=O)Nc1cccc(-n2c(=O)n(-c3cccc(Oc4ccccc4OC)c3)c3cnccc32)c1 [Example 89, N-(3-(3-(3-(2-methoxyphenoxy)phenyl)-2-oxo-2,3-dihydro-1H-imidazo[4,5-c]pyridin-1-yl)phenyl)acrylamide] | 7.00 to 8.00 |
| C=CC(=O)N1CCC[C@@H](n2c(=O)n(-c3ccc(Oc4cccc(C)c4OC)cc3)c3cnccc32)C1 [Example 66, (R)-1-(1-acryloylpiperidin-3-yl)-3-(4-(2-methoxy-3-methylphenoxy)phenyl)-1H-imidazo[4,5-c] pyridin-2(3H)-one] | 7.00 to 8.00 |
| C=CC(=O)Nc1cccc(-n2c(=O)n(-c3ccc(C(=O)N4CCOCC4)cc3)c3cnccc32)c1 [Example 253, N-(3-(3-(4-(morpholine-4-carbonyl)phenyl)-2-oxo-2,3-dihydro-1H-imidazo[4,5-c]pyridin-1-yl)phenyl)acrylamide] | 5.00 to 6.00 |
| C=CC(=O)N1CCC(n2c(=O)n(-c3ccc(Oc4cccc(OC)c4)c(C)c3)c3cnccc32)C1 (stereo not drawn) [Example 92, 1-(1-acryloylpyrrolidin-3-yl)-3-(4-(3-methoxyphenoxy)-3-methylphenyl)-1,3-dihydro-2H-imidazo[4,5-c]pyridin-2-one] | 7.00 to 8.00 |
| C=CC(=O)Nc1cccc(-n2c(=O)n(-c3ccc(OCc4ccccn4)cc3)c3cnccc32)c1 [Example 196, N-(3-(2-oxo-3-(4-(pyridin-2-ylmethoxy)phenyl)-2,3-dihydro-1H-imidazo[4,5-c]pyridin-1-yl)phenyl)acrylamide] | 6.00 to 7.00 |
| C=CC(=O)N1CC[C@@H](n2c(=O)n(-c3ccc(Oc4cccc(Cl)c4Cl)cc3)c3cnccc32)C1 [Example 99, (R)-1-(1-acryloylpyrrolidin-3-yl)-3-(4-(2,3-dichlorophenoxy)phenyl)-1,3-dihydro-2H-imidazo[4,5-c]pyridin-2-one] | 7.00 to 8.00 |
| C=CC(=O)N1CCC[C@@H](n2c(=O)n(-c3ccc(Oc4cccc(C)c4)c(Cl)c3)c3cnccc32)C1 [Example 108, (R)-1-(1-acryloylpiperidin-3-yl)-3-(3-chloro-4-(m-tolyloxy)phenyl)-1H-imidazo[4,5-c]pyridin-2(3H)-one] | 7.00 to 8.00 |
| C=CC(=O)N1CC[C@@H](n2c(=O)n(-c3ccc(Oc4ccccc4)cc3)c3cncc(Cl)c32)C1 [Example 151, (R)-1-(1-acryloylpyrrolidin-3-yl)-7-chloro-3-(4-phenoxyphenyl)-1H-imidazo[4,5-c]pyridin-2(3H)-one] | ≥ 8.00 |
| C=CC(=O)Nc1cccc(-n2c(=O)n(-c3ccc(OCc4ccccc4)c(Cl)c3)c3cnccc32)c1 [Example 224, N-(3-(3-(4-(benzyloxy)-3-chlorophenyl)-2-oxo-2,3-dihydro-1H-imidazo[4,5-c]pyridin-1-yl)phenyl)acrylamide] | 6.00 to 7.00 |
| C=CC(=O)Nc1cccc(-n2c(=O)n(-c3cccc(Oc4ccccc4C)c3)c3cnccc32)c1 [Example 88, N-(3-(2-oxo-3-(3-(o-tolyloxy)phenyl)-2,3-dihydro-1H-imidazo[4,5-c]pyridin-1-yl)phenyl)acrylamide] | 7.00 to 8.00 |
| C=CC(=O)Nc1cccc(-n2c(=O)n(-c3ccc(OCc4ccc(C(F)(F)F)cc4)c(Cl)c3)c3cnccc32)c1 [Example 223, N-(3-(3-(3-chloro-4-((4-(trifluoromethyl)benzyl)oxy)phenyl)-2-oxo-2,3-dihydro-1H-imidazo[4,5-c]pyridin-1-yl)phenyl)acrylamide] | 6.00 to 7.00 |
| C=CC(=O)Nc1cccc(-n2c(=O)n(-c3ccc(Oc4cccc(OC(C)C)c4)c(Cl)c3)c3cnccc32)c1 [Example 145, N-(3-(3-(3-chloro-4-(3-isopropoxyphenoxy)phenyl)-2-oxo-2,3-dihydro-1H-imidazo[4,5-c]pyridin-1-yl)phenyl)acrylamide] | 6.00 to 7.00 |
| C=CC(=O)N1CCC[C@@H](n2c(=O)n(-c3ccc(Oc4cccc(C)c4)cc3)c3cnccc32)C1 [Example 13, (R)-1-(1-acryloylpiperidin-3-yl)-3-(4-(m-tolyloxy)phenyl)-1H-imidazo[4,5-c]pyridin-2(3H)-one] | 7.00 to 8.00 |
| C=CC(=O)Nc1cccc(-n2c(=O)n(-c3cccc(Oc4ccc(C)cc4)c3)c3cnccc32)c1 [Example 76, N-(3-(2-oxo-3-(3-(p-tolyloxy)phenyl)-2,3-dihydro-1H-imidazo[4,5-c]pyridin-1-yl)phenyl)acrylamide] | 7.00 to 8.00 |
| C=CC(=O)N1CC[C@@H](n2c(=O)n(-c3ccc(OCc4ccc(Cl)c(Cl)c4)c(Cl)c3)c3cnccc32)C1 [Example 215, (R)-1-(1-acryloylpyrrolidin-3-yl)-3-(3-chloro-4-((3,4-dichlorobenzyl)oxy)phenyl)-1H-imidazo[4,5-c]pyridin-2(3H)-one] | 5.00 to 6.00 |
| C=CC(=O)N1CC[C@@H](n2c(=O)n(-c3ccc(OCc4ccc(F)cc4F)cc3)c3cnccc32)C1 [Example 199, (R)-1-(1-acryloylpyrrolidin-3-yl)-3-(4-((2,4-difluorobenzyl)oxy)phenyl)-1H-imidazo[4,5-c]pyridin-2(3H)-one] | 6.00 to 7.00 |

— patent US10358446B2, “Bruton's tyrosine kinase inhibitors” (Zibo Biopolar Changsheng Pharmaceutical Co. Ltd., priority 2015, dated 2019)
